Reference: patent US11084808B2, “Oxopicolinamide derivative, preparation method therefor and pharmaceutical use thereof” (Jiangsu Hengrui Medicine Co., Ltd., priority 2016, dated 2021)

System: human blood
Assay: In vitro anticoagulant effect on human blood (APTT, CT2)
Assay type: biochemical
Settings: Table 2; concentration of the compound corresponding to 2 times the APTT of the blank control; human plasma
Procedure: Test Example 2: Determination of In Vitro Anticoagulant Effect of the Compounds of the Present Invention on Human Blood
1. Experimental Materials
Plasma: Human blood was collected in blood collection tubes containing no anticoagulant, and then 3.8% sodium citrate (volume ratio 1:9) was added. The tubes were centrifuged at 2500 rpm for 10 minutes at room temperature, and then the plasma was collected and stored at −80° C.:
Reagents: APTT reagent (Activated partial thromboplastin time assay kit, SIEMENS, Art. No. B4218-1), calcium chloride solution;
Instrument: Coagulation instrument (SYSMEX, CA-500).
The divided plasma was melted at room temperature and mixed well. 10000 μM the test compound dissolved in 100% DMSO was diluted to 3000, 300, 200, 150, 75, 30, 10, 3, 0.3 μM with 100% DMSO, and the blank was 100% DMSO. The reagent, plasma, and compound were placed in corresponding positions in the coagulation instrument, and APTT detection of the compound was carried out.
Curve fitting was carried out by graphpad and CT2 was calculated, i.e., the concentration of the compound corresponding to 2 times the APTT of the blank control.

Going from `COCCC(C(=O)Nc1ccc2[nH]c(C(=O)O)cc2c1)n1cc(OC)c(-c2cc(Cl)ccc2C(C)=O)cc1=O` (centres unmarked) [Example 1, 5-(2-(4-(2-acetyl-5-chlorophenyl)-5-methoxy-2-oxopyridin-1(2H)-yl)-4-methoxybutanamido)-1H-indole-2-carboxylic acid] to `COCC[C@@H](C(=O)Nc1ccc2[nH]c(C(=O)O)cc2c1)n1cc(OC)c(-c2cc(Cl)ccc2C(C)=O)cc1=O` [Example 2, (S)-5-(2-(4-(2-acetyl-5-chlorophenyl)-5-methoxy-2-oxopyridin-1(2H)-yl)-4-methoxybutanamido)-1H-indole-2-carboxylic acid], the “CT2 (compound concentration doubling APTT)” value (shortened to “CT2”) falls from 4.4 µM to 2.9 µM (1.5-fold).

First: COc1cn([C@@H](Cc2ccccc2)C(=O)Nc2ccc(C(=O)O)cc2)c(=O)cc1-c1cc(Cl)ccc1C(C)=O [Example 5, (S)-4-(2-(4-(2-acetyl-5-chlorophenyl)-5-methoxy-2-oxopyridin-1(2H)-yl)-3-phenylpropanamido)benzoic acid]
Second: COc1cn([C@@H](Cc2ccccc2)C(=O)Nc2ccc(C(N)=O)cc2)c(=O)cc1-c1cc(Cl)ccc1C(C)=O [Example 11, (S)-4-(2-(4-(2-acetyl-5-chlorophenyl)-5-methoxy-2-oxopyridin-1(2H)-yl)-3-phenylpropanamido)benzamide]
The “CT2” value of the first is 2.1-fold lower: 2.0 µM for the first, 4.2 µM for the second.

First: CCC(=O)c1ccc(Cl)cc1-c1cc(=O)n(C(Cc2ccccc2)C(=O)Nc2ccc(C(=O)O)cc2)cc1OC (centres unmarked) [Example 8, 4-(2-(4-(5-chloro-2-propionylphenyl)-5-methoxy-2-oxopyridin-1(2H)-yl)-3-phenylpropanamido)benzoic acid]
Second: CCC(=O)c1ccc(Cl)cc1-c1cc(=O)n([C@@H](Cc2ccccc2)C(=O)Nc2ccc(C(=O)O)cc2)cc1OC [Example 9, (S)-4-(2-(4-(5-chloro-2-propionylphenyl)-5-methoxy-2-oxopyridin-1(2H)-yl)-3-phenylpropanamido)benzoic acid]
The “CT2” value of the first is 2.7-fold higher: 6.4 µM for the first, 2.4 µM for the second.

`CNC(=O)c1ccc(NC(=O)[C@H](Cc2ccccc2)n2cc(OC)c(-c3cc(Cl)ccc3C(C)=O)cc2=O)cc1` [Example 13, (S)-4-(2-(4-(2-acetyl-5-chlorophenyl)-5-methoxy-2-oxopyridin-1(2H)-yl)-3-phenylpropanamido)-N-methylbenzamide] and `CCNC(=O)c1ccc(NC(=O)[C@H](Cc2ccccc2)n2cc(OC)c(-c3cc(Cl)ccc3C(C)=O)cc2=O)cc1` [Example 37, (S)-4-(2-(4-(2-acetyl-5-chlorophenyl)-5-methoxy-2-oxopyridin-1(2H)-yl)-3-phenylpropanamido)-N-ethylbenzamide] are within 1.5-fold of each other in “CT2” value: 6.0 µM for the first, 7.8 µM for the second.

`COc1cn([C@@H](Cc2ccccc2)C(=O)Nc2ccc3nn(C)cc3c2)c(=O)cc1-c1cc(Cl)ccc1C(C)=O` [Example 20, (S)-2-(4-(2-acetyl-5-chlorophenyl)-5-methoxy-2-oxopyridin-1(2H)-yl)-N-(2-methyl-2H-indazol-5-yl)-3-phenylpropanamide] and `COc1cn(C(Cc2ccn(C3CC3)n2)C(=O)Nc2ccc3nn(C)cc3c2)c(=O)cc1-c1cc(Cl)ccc1C(C)=O` (centres unmarked) [Example 97, 2-(4-(2-acetyl-5-chlorophenyl)-5-methoxy-2-oxopyridin-(2H)-yl)-3-(1-cyclopropyl-1H-pyrazol-3-yl)-N-(2-methyl-2H-indazol-5-yl)propanamide] are within 1.5-fold of each other in “CT2” value: 6.5 µM for the first, 5.4 µM for the second.

`COc1cn([C@@H](Cc2ccccc2)C(=O)Nc2ccc(C(=O)O)cc2)c(=O)cc1-c1c(C(C)=O)ccc(Cl)c1F` [Example 31, (S)-4-(2-(4-(6-acetyl-3-chloro-2-fluorophenyl)-5-methoxy-2-oxopyridin-1(2H)-yl)-3-phenylpropanamido)benzoic acid] and `COc1cn(C(Cc2ccccc2)C(=O)Nc2ccc(C(=O)O)cc2)c(=O)cc1-c1cc(Cl)ccc1C(=O)CC1CC1` (centres unmarked) [Example 39, 4-(2-(4-(5-chloro-2-(2-cyclopropylacetyl)phenyl)-5-methoxy-2-oxopyridin-1(2H)-yl)-3-phenylpropanamido)benzoic acid] are within 1.5-fold of each other in “CT2” value: 8.5 µM for the first, 8.3 µM for the second.

`COc1cn([C@@H](Cc2ccccn2)C(=O)Nc2ccc(C(=O)O)cc2)c(=O)cc1-c1cc(Cl)ccc1C(C)=O` [Example 80, (S)-4(2-(4-(2-acetyl-5-chlorophenyl)-5-methoxy-2-oxopyridin-1(2H)-yl)-3-(pyridin-2-yl)propanamido)benzoic acid] and `COc1cn([C@@H](Cc2ccccn2)C(=O)Nc2ccc(C(N)=O)cc2)c(=O)cc1-c1cc(Cl)ccc1C(C)=O` [Example 85, (S)-4-(2-(4-(2-acetyl-5-chlorophenyl)-5-methoxy-2-oxopyridin-1(2H)-yl)-3-(pyridin-2-yl)propanamido)benzamide] are within 1.5-fold of each other in “CT2” value: 7.9 µM for the first, 6.5 µM for the second.

Going from `COc1cn([C@@H](Cc2cccc(C#N)c2)C(=O)Nc2ccc(C(=O)O)cc2)c(=O)cc1-c1cc(Cl)ccc1C(C)=O` [Example 89, (S)-4-(2-(4-(2-acetyl-5-chlorophenyl)-5-methoxy-2-oxopyridin-1(2H)-yl)-3-(3-cyanophenyl)propanamido)benzoic acid] to `COc1cn(C(Cc2ccn(C3CC3)n2)C(=O)Nc2ccc(C(=O)O)cc2)c(=O)cc1-c1cc(Cl)ccc1C(C)=O` (centres unmarked) [Example 93, 4-(2-(4-(2-acetyl-5-chlorophenyl)-5-methoxy-2-oxopyridin-1(2H)-yl)-3-(1-cyclopropyl-1H-pyrazol-3-yl)propanamido)benzoic acid], the “CT2” value falls from 5.7 µM to 2.9 µM (2-fold).

First: CCC(=O)c1ccc(Cl)cc1-c1cc(=O)n(C(Cc2ccn(C3CC3)n2)C(=O)Nc2ccc(C(=O)O)cc2)cc1OC (centres unmarked) [Example 91, 4-(2-(4-(5-chloro-2-propionylphenyl)-5-methoxy-2-oxopyridin-(2H)-yl)-3-(1-cyclopropyl-1H-pyrazol-3-yl)propanamido)benzoic acid]
Second: CCC(=O)c1ccc(Cl)cc1-c1cc(=O)n([C@@H](Cc2ccn(C3CC3)n2)C(=O)Nc2ccc(C(=O)O)cc2)cc1OC [Example 92, (S)-4-(2-(4-(5-chloro-2-propionylphenyl)-5-methoxy-2-oxopyridin-1(2H)-yl)-3-(1-cyclopropyl-1H-pyrazol-3-yl)propanamido)benzoic acid]
The “CT2” value of the first is 1.8-fold higher: 2.1 µM for the first, 1.2 µM for the second.

Going from `COc1cn([C@@H](Cc2ccn(C3CC3)n2)C(=O)Nc2ccc(C(=O)O)cc2)c(=O)cc1-c1cc(Cl)ccc1C(C)=O` [Example 94, (S)-4-(2-(4-(2-acetyl-5-chlorophenyl)-5-methoxy-2-oxopyridin-1(2H)-yl)-3-(1-cyclopropyl-1H-pyrazol-3-yl)propanamido)benzoic acid] to `CCC(=O)c1ccc(Cl)cc1-c1cc(=O)n(C(Cc2ccn(C)n2)C(=O)Nc2ccc(C(=O)O)cc2)cc1OC` (centres unmarked) [Example 99, 4-(2-(4-(5-chloro-2-propionylphenyl)-5-methoxy-2-oxopyridin-1(2H)-yl)-3-(1-methyl-1H-pyrazol-3-yl)propanamido)benzoic acid], the “CT2” value rises from 2.2 µM to 3.5 µM (1.6-fold).

`COc1cn(C(Cc2ccn(C3CC3)n2)C(=O)Nc2ccc3nccnc3c2)c(=O)cc1-c1cc(Cl)ccc1C(C)=O` (centres unmarked) [Example 96, 2-(4-(2-acetyl-5-chlorophenyl)-5-methoxy-2-oxopyridin-1(2H)-yl)-3-(1-cyclopropyl-1H-pyrazol-3-yl)-N-(quinoxalin-6-yl)propanamide] and `COc1cn(C(Cc2ccn(C3CC3)n2)C(=O)Nc2ccc3ncncc3c2)c(=O)cc1-c1cc(Cl)ccc1C(C)=O` (centres unmarked) [Example 98, 2-(4-(2-acetyl-5-chlorophenyl)-5-methoxy-2-oxopyridin-1(2H)-yl)-3-(1-cyclopropyl-1H-pyrazol-3-yl)-N-(quinazolin-6-yl)propanamide] are within 1.5-fold of each other in “CT2” value: 6.7 µM for the first, 7.6 µM for the second.

`COCC[C@H](C(=O)Nc1ccc2[nH]c(C(=O)O)cc2c1)n1cc(OC)c(-c2cc(Cl)ccc2C(C)=O)cc1=O` [Example 3, (R)-5-(2-(4-(2-acetyl-5-chlorophenyl)-5-methoxy-2-oxopyridin-1(2H)-yl)-4-methoxybutanamido)-1H-indole-2-carboxylic acid] was tested, and the “CT2” value was over 10000 µM.
In the case of `COc1cn([C@H](Cc2ccccc2)C(=O)Nc2ccc(C(=O)O)cc2)c(=O)cc1-c1cc(Cl)ccc1C(C)=O` [Example 6, (R)-4-(2-(4-(2-acetyl-5-chlorophenyl)-5-methoxy-2-oxopyridin-1(2H)-yl)-3-phenylpropanamido)benzoic acid], the “CT2” value is reported as over 10000 µM.
In the case of `COc1cn([C@H](Cc2ccccn2)C(=O)Nc2ccc(C(=O)O)cc2)c(=O)cc1-c1cc(Cl)ccc1C(C)=O` [Example 81, (R)-4-(2-(4-(2-acetyl-5-chlorophenyl)-5-methoxy-2-oxopyridin-1(2H)-yl)-3-(pyridin-2-yl)propanamido)benzoic acid], the “CT2” value is reported as over 10000 µM.

Same assay, conditions: Table 3 comparison with similar compounds in the published patents; human plasma

With `COc1cn([C@@H](CCOC(C)(C)C)C(=O)Nc2ccc3nccnc3c2)c(=O)cc1-c1cc(Cl)ccc1-c1nc(C)no1` [Comparative Example 2, (S)-4-(tert-butoxy)-2-(4-(5-chloro-2-(3-methyl-1,2,4-oxadiazol-5-yl)phenyl)-5-methoxy-2-oxopyridin-1 (2H)-yl)-N-(quinoxalin-6-yl)butanamide, reference compound] the “CT2” value was 13.1 µM.
